{
  "source": "paper PMC5794198",
  "about": "“Inhibitors of Trypanosoma cruzi Sir2 related protein 1 as potential drugs against Chagas disease” (PLoS Neglected Tropical Diseases, 2018)",
  "key": {"[1]": {"system": "T. cruzi Y strain (Luc+)", "test": "Mouse model of T. cruzi infection, bioluminescence imaging", "format": "in vivo, BALB/c mice", "conditions": "100 mg/kg/day per os, 4 days", "protocol": "To evaluate BNIPSpd (9) efficacy in vivo, five- to six-week-old female BALB/c mice (Charles River) and infected with T. cruzi trypomastigotes expressing luciferase. Parasites were collected from the supernatants of a monolayer of Vero infected cells, washed and suspended in PBS-glucose 0.2%, and injected intraperitoneally (1 x 10^4 per mouse). After 7 days of infection, mice were treated with drugs for 4 consecutive days orally with (benznidazole in 20% Kolliphor HS 15) or intravenously with (BNIPSpd (9) in 10% DMSO) at a dose of 100 or 5 mg/kg/day, respectively. Infection and treatment efficiency were evaluated following subcutaneous injection of 2.1 mg of luciferin and through live imaging using an IVIS Lumina LT (Perkin Elmer). Images of the animals were analysed using the Living Image software (Perkin Elmer).\nSupplementary file pntd.0006180.s006.tif: S5 Fig In vivo efficacy testing of BNIPSpd (9). A) Mice were infected with 10^4 Luc^+ trypomastigotes by intraperitoneal injection. […] In the lower panel, bioluminescence signal of whole mice represented in average radiance (photons/sec/cm^2/sr) quantified before and after treatment. […] B) Snapshot Pharmacokinetics of BNIPSpd (9) in BALB/c mice by quantification of BNIPSpd (9) in the blood of mice by UHPLC-MS/MS ESI+ at different time-points after administration of a 5 mg/kg dose by intravenous injection. […]"}, "[2]": {"system": "T. cruzi amastigotes", "test": "High-content screening assay on intracellular T. cruzi amastigotes", "format": "cell-based, Trypanosoma cruzi", "conditions": "Trypanosoma cruzi, C2C12, 72 h, Y strain in C2C12 host cells, 72 h; read-out: Anti-T. cruzi Activity Amastigotes (EC50 ± SD)", "protocol": "(§1) For the evaluation of the activity against T. cruzi amastigotes, high-content screening (HCS) was designed. In summary, 100 μL of host C2C12 cells (ATCC) were seeded in clear bottom black 96-well plates at a density of 2.5 x 10^4 cells/mL (2.5 × 10^3 cells/well). After 24 hrs, 50 μL of Y strain tissue culture-derived trypomastigotes were used to infect the host cells at a density of 7.5 x 10^5/mL (3.75 x 10^4 parasites/well). The parasites were allowed to infect for a 24 hr period, after which compounds were added in a volume of 50 μL. […] After 72 hrs of compound incubation, the wells were fixed with 4% paraformaldehyde for 15 to 30 mins. The plates were then washed once with deionized water and stained with a solution of DAPI (3 μM) for 1 hour. Plates were imaged in an INCell 2000 (GE Healthcare) high-content analyser by taking 16 pictures per well at 20 X objective amplification. Images were analysed with INCell Developer software (GE Healthcare) using the segmentation of host cell nuclei and parasite kinetoplast DNA. The measurement output used was the average number of parasites per cell calculated by the ratio of host cell nuclei/parasite kinetoplast DNA.\nIn this assay, the compounds are incubated for 72 hours with cells previously infected with wild-type trypomastigotes for 24 hours. The readout was done by comparing the average number of amastigotes per cell that developed by the end of the incubation period. The quality of the assay was statistically evaluated by the calculation of the z-factor [75], that represents the reliability of the assay in distinguishing positive controls confidently from negative controls. Varying from 0 to 1, z-factor values higher than 0.5 are considered acceptable for drug screening. The z-factor obtained was 0.68, validating the use of the assay (S3B Fig)."}, "[3]": {"test": "C2C12 host cell cytotoxicity (cell ratio) in HCS assay", "format": "cell-based, Mouse", "conditions": "mouse, cell ratio, 72 h; read-out: C2C12 Cytotoxicity (CC50 ± SD)", "protocol": "as §1, with “After 24 hrs, 50 μL of Y strain tissue culture-derived trypomastigotes were used to infect the host cells at a density of 7.5 x 10^5/mL (3.75 x 10^4 parasites/well).” left out"}, "[4]": {"system": "C2C12 cells", "test": "C2C12 host cell cytotoxicity (cell ratio) in HCS assay", "format": "cell-based, Mouse", "conditions": "for Selectivity Index: CC50 cell line (C2C12)/EC50 T. cruzi", "protocol": "as §1, with “After 24 hrs, 50 μL of Y strain tissue culture-derived trypomastigotes were used to infect the host cells at a density of 7.5 x 10^5/mL (3.75 x 10^4 parasites/well).” left out"}, "[5]": {"system": "T. cruzi epimastigotes overexpressing TcSir2rp1 (OE) with the pTcINDEX", "test": "microbe, parasite or virus in culture", "format": "cell-based", "conditions": "Trypanosoma cruzi, read-out: EC50 against T. cruzi epimastigotes OE", "protocol": "For the generation of transgenic cell lines, 15 μg of the constructs were digested overnight (SpeI for the pTcINDEX construct; NotI for the knockout constructs), precipitated with sodium acetate / ethanol, and introduced into 1.5 x 10^7 epimastigote cells in the logarithmic phase of growth via transfection using an AMAXA Nucleofector II device (program V-33) with the Human T-cell nucleofector kit (Lonza). Parasites were suspended in fresh growth medium and incubated for 24-hrs to allow for the expression of drug selectable markers, prior to the addition of appropriate antibiotic (Blasticidin S (Thermo Fisher Scientific; 10 μg/mL); Hygromycin B (Formedium; 100 μg/mL); and Puromycin (Calbiochem; 5 μg/mL). Cells were then incubated for a further four- to six-weeks to allow for the selection of transgenic parasites and then genetically verified by PCR using ORF and drug selection primers.\nThe TcSir2rp1 open reading frame (TriTryp accession number TcCLB.508207.150) was amplified from CL-Brener genomic DNA using KOD polymerase (Novagen). The resulting PCR product encoding the full-length ORF was cloned directly into the T. cruzi expression vector, pTcINDEX [49], using NotI and BamHI restriction sites.\nT. cruzi epimastigotes were seeded at 1.25 x 10^6 cells/mL in a 96-well plate in the presence of varying concentrations of test compounds. Following a 64-hour incubation, 15 μL of a resazurin solution (Sigma-Aldrich; 1.1 mg/mL in PBS). Following an additional 6-hr incubation, cell viability was determined by measuring the fluorescence of each culture with a BioTek FLX800 Fluorescence Microplate Reader (excitation and emission wavelengths of 540/535 nm and 590/610 nm, respectively) and associated Gen5 Reader Control 2.0 software. EC50 values were determined by nonlinear regression to a sigmoidal dose-response curve using GraFit software (Version 5.0, Erithacus Software). Each assay was performed in at least triplicate in parallel to the known trypanocidal agent nifurtimox."}, "[6]": {"system": "T. cruzi epimastigotes, wild-type (WT)", "test": "T. cruzi epimastigote resazurin viability assay, wild-type", "format": "cell-based, Trypanosoma cruzi", "conditions": "CL-Brener, 64 h + 6 h resazurin; means ± SD (n = 4)", "protocol": "T. cruzi epimastigotes were seeded at 1.25 x 10^6 cells/mL in a 96-well plate in the presence of varying concentrations of test compounds. Following a 64-hour incubation, 15 μL of a resazurin solution (Sigma-Aldrich; 1.1 mg/mL in PBS). […] Each assay was performed in at least triplicate in parallel to the known trypanocidal agent nifurtimox."}, "[7]": {"target": "TcSir2rp1 (Trypanosoma cruzi, UniProt Q4DVL9)", "sequence (Q4DVL9 entry or part of it)": "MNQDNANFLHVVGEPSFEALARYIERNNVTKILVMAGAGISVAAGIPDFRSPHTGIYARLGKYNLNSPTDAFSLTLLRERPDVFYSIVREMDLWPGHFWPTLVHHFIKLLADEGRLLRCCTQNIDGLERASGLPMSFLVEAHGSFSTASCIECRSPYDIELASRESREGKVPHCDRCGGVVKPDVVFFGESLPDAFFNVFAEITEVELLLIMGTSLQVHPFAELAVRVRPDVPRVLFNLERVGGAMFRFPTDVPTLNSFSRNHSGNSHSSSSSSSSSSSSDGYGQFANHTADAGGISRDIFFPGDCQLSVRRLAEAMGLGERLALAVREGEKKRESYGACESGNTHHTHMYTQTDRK", "test": "TcSir2rp1 NAD+-dependent deacetylase fluorimetric assay (CycLex kit)", "format": "biochemical", "conditions": "for Inhibition of NAD+-dependent deacetylase activity of TcSir2rp1 / inhibition at 10 µM: single dose 10 μM, 200 μM NAD+, 10 μM peptide", "protocol": "The deacetylase activity was measured using the commercial SIRT1/Sir2 Deacetylase Fluorometric Assay Kit (CycLex,Japan) according to the manufacturer’s recommendations. Briefly, fluorescence emission after digestion of deacetylated substrates by a lysine specific endopeptidase was measured in a fluorometric plate reader (Synergy HT, BioTek) with excitation and emission wavelengths set at 340 and 440 nm, respectively, every 30 seconds for 1 hour. The slope of the linear part of the reaction was calculated and used as readout of enzyme activity. […]\n(§2) A variety of the bisnaphthalimidopropyl (BNIPs) derivatives, as well as the newly synthetized derivatives were evaluated as potential TcSir2rp1 inhibitors. The enzymatic reactions were performed using a commercially available CycLex SIRT1/Sir2 deacetylase fluorimetric kit (CycLex Co. Ltd., Nagano, Japan) in the absence and presence of the various inhibitors, 200 μM NAD^+ and 10 μM of peptide substrate as previously described.\nas §2, with “µM” for “μM”"}, "[8]": {"test": "Solubility", "format": "physicochemical", "conditions": "limits the concentration tested"}},
  "note": "Entries after “also recorded” stand apart in the source; their conditions may differ.",
  "data": [
    {"smiles": "O=C(Cn1ccnc1[N+](=O)[O-])NCc1ccccc1", "note": "[Benznidazole, benznidazole, reference compound]", "values": [
      {"measurement": "Reduction in the bioluminescence signal compared to vehicle", "setting": "[1]", "result": 700, "unit": "fold"},
      {"measurement": "EC50", "setting": "[2]", "result": "1.23 ± 0.3", "unit": "µM"},
      {"measurement": "CC50 at 72 h", "setting": "[3]", "result": "> 100", "unit": "µM"},
      {"measurement": "Selectivity Index", "setting": "[4]", "result": "> 81.0"}
    ]},
    {"smiles": "O=C1c2cccc3cccc(c23)C(=O)N1CCCNCCCCCNCCCN1C(=O)c2cccc3cccc(c23)C1=O", "note": "[Compound 2]", "values": [
      {"measurement": "EC50", "setting": "[5]", "result": "7.94 ± 0.78", "unit": "µM"},
      {"measurement": "EC50 against T. cruzi epimastigotes WT", "setting": "[6]", "result": "just as potent as nifurtimox"},
      {"measurement": "inhibition at 50 µM", "setting": "[7]; 50 μM", "result": "55 ± 4", "unit": "%"},
      {"measurement": "Inhibition of NAD+-dependent deacetylase activity of TcSir2rp1", "setting": "[7]", "result": "statistically significant inhibition"},
      {"measurement": "inhibition at 10 µM", "setting": "[7]", "result": "42 ± 13", "unit": "%"},
      {"measurement": "Host cell toxicity in primary screening", "setting": "[4]; single dose 2.5 μM", "result": "high cytotoxicity"}
    ]},
    {"smiles": "O=C1c2cccc3cccc(c23)C(=O)N1CCCNCCCCCCNCCCN1C(=O)c2cccc3cccc(c23)C1=O", "note": "[Compound 3]", "values": [
      {"measurement": "Solubility in assay (qualitative)", "setting": "[8]", "result": "low solubility; also recorded: poor solubility"},
      {"measurement": "EC50", "setting": "[5]", "result": "102 ± 9.9", "unit": "µM"},
      {"measurement": "EC50 against T. cruzi epimastigotes WT", "setting": "[6]", "result": "moderate activity"},
      {"measurement": "inhibition at 20 µM", "setting": "[7]", "result": "34 ± 11", "unit": "%"},
      {"measurement": "Inhibition of NAD+-dependent deacetylase activity of TcSir2rp1", "setting": "[7]", "result": "statistically significant inhibition"},
      {"measurement": "inhibition at 10 µM", "setting": "[7]", "result": "31 ± 8", "unit": "%"}
    ]},
    {"smiles": "O=C1c2cccc3cccc(c23)C(=O)N1CCCNCCCCCCCCCNCCCN1C(=O)c2cccc3cccc(c23)C1=O", "note": "[Compound 6]", "values": [
      {"measurement": "EC50", "setting": "[2]", "result": "1.45 ± 0.37", "unit": "µM"},
      {"measurement": "EC50", "setting": "[5]", "result": "113 ± 8.2", "unit": "µM"},
      {"measurement": "EC50 against T. cruzi epimastigotes WT", "setting": "[6]", "result": "moderate activity"},
      {"measurement": "CC50 at 72 h", "setting": "[3]", "result": "2.35 ± 0.77", "unit": "µM"},
      {"measurement": "Selectivity Index", "setting": "[4]", "result": 1.7}
    ]},
    {"smiles": "O=C1c2cccc3cccc(c23)C(=O)N1CCCNCCCCCCCCCCNCCCN1C(=O)c2cccc3cccc(c23)C1=O", "note": "[Compound 7]", "values": [
      {"measurement": "EC50", "setting": "[5]", "result": "2.97 ± 0.6", "unit": "µM"},
      {"measurement": "EC50 against T. cruzi epimastigotes WT", "setting": "[6]", "result": "just as potent as nifurtimox"}
    ]},
    {"smiles": "CC1CS(=O)(=O)CCN1/N=C/c1ccc([N+](=O)[O-])o1", "note": "(stereo not drawn) [Nifurtimox, nifurtimox, reference compound]", "values": [
      {"measurement": "EC50", "setting": "[5]", "result": "2.24 ± 0.14", "unit": "µM"}
    ]}
  ]
}
